From ChEMBL document CHEMBL1146611, “Design and synthesis of novel pyrrolidine-containing bradykinin antagonists” (Bioorg Med Chem Lett, 2003)

Columns and labels:
B2 bradykinin receptor = molecular target: T1, B2 bradykinin receptor (Homo sapiens, UniProt P30411); assay: In vitro binding affinity against Bradykinin receptor B2
T1 sequence (P30411 whole entry): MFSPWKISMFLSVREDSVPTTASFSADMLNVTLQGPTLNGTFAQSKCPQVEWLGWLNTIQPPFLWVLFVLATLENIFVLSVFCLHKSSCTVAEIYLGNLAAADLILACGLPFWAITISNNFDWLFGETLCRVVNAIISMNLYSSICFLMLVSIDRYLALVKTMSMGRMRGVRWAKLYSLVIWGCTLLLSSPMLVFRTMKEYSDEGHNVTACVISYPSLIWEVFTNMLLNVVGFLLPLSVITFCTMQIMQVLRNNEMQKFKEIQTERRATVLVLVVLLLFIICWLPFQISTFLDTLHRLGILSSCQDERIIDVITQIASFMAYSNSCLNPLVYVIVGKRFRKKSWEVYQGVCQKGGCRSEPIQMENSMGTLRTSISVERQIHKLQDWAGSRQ

[1] = molecular target: T2, B1 bradykinin receptor (Homo sapiens) (UniProt P46663); assay: In vitro binding affinity against Bradykinin receptor B1 at 1 uM concentration
T2 sequence (whole entry): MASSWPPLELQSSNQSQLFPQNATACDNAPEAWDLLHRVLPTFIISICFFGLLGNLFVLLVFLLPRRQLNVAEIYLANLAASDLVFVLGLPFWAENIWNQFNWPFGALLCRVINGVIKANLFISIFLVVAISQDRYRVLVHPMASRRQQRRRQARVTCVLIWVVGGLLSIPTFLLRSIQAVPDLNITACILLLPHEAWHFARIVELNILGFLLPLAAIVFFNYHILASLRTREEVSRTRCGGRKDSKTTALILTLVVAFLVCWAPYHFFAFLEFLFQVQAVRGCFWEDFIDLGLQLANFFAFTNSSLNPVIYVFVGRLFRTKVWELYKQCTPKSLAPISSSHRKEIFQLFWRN

[2] = molecular target: T3, B2 bradykinin receptor (Homo sapiens) (UniProt P30411); assay: In vitro binding affinity against Bradykinin receptor B2 at 1 uM concentration
T3 sequence (whole entry): T1 sequence (P30411 whole entry)

Structure (SMILES)	Ki (B2 bradykinin receptor) [nM]	inhibition [1] [%]	inhibition [2] [%]
CC(=O)Nc1ccc(/C=C/C(=O)NC[C@H]2CCCN2c2ccc(C)c(COc3cccc4ccc(C)nc34)c2C)cn1	46	1	76
Cc1ccc2cccc(OCc3c(C)ccc(N4CCC[C@H]4C(=O)O)c3C)c2n1	–	6	19
Cc1ccc2cccc(OCc3c(C)ccc(N4CCC[C@H]4CO)c3C)c2n1	–	1	19
Cc1ccc2cccc(OCc3c(C)ccc(N4CCC[C@H]4CN4C(=O)c5ccccc5C4=O)c3C)c2n1	–	5	8
Cc1ccc2cccc(OCc3c(C)ccc(N4CCC[C@@H]4C(=O)O)c3C)c2n1	–	1	11
Cc1ccc2cccc(OCc3c(C)ccc(N4CCC[C@@H]4CO)c3C)c2n1	–	9	12
Cc1ccc2cccc(OCc3c(C)ccc(N4CCC[C@@H]4CN4C(=O)c5ccccc5C4=O)c3C)c2n1	–	1	8
CC(=O)Nc1ccc(/C=C/C(=O)NC[C@@H]2CCCN2c2ccc(C)c(COc3cccc4ccc(C)nc34)c2C)cn1	33	1	84
